Measured values taken from PubChem BioAssay AID1117361 (Southern Research Institute, 2015).

The compounds below were run against Protein Tat (Human immunodeficiency virus type 1 group M subtype B (isolate HXB2)) (UniProt P04608) (assay: HIV-1 Tat–TAR interaction blockers – biochemical, fluorescence polarization, FAM-labeled TAR RNA, counter-screen for Vif-APOBEC3G degradation inhibitor project, dose response (AID 1117361)). Conditions: Tat-TAR RNA binding.
Sequence of Protein Tat (Human immunodeficiency virus type 1 group M subtype B (isolate HXB2)) (P04608 whole entry, looked up): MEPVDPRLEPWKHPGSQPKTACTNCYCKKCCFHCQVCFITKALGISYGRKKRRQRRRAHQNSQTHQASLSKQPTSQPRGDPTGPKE

| IC50 [µM] | SMILES |
| --- | --- |
| 1.64 | O=C(O)C1Nc2c(O)cc(Cl)c([N+](=O)[O-])c2C2C=CCC12 (stereo not drawn) |
| 37.4 | Cn1cnnc1SC/C(O)=C(\C#N)c1nc2ccccc2[nH]1 |
| 35.2 | O=C(/C(=N/N=C/c1ccc(O)c(O)c1O)c1ccccc1)c1ccccc1 |
| 5.49 | C=CCn1c(C)cc(-c2csc(N)n2)c1C |
| 11 | O=CN/C=C/c1cc(O)ccc1O |
| 46.2 | COC(=O)c1ccc(COc2ccccc2/C=C(\C#N)C(=O)Nc2c(C)cc(C)cc2C)cc1 |
| 3.06 | COc1cccc(=O)c2c(C)n(-c3ccc(C(=O)O)cc3)c(C)c12 |
| 1.59 | CCOC1(OCC)N=C(N)C2(C#N)C(c3cccc(OC)c3OC)C12C#N (stereo not drawn) |
| 7.08 | CC(C)(C)C1C/C(=C/c2ccco2)C(=O)/C(=C/c2ccco2)C1 (stereo not drawn) |
| 67.6 | CCOC(=O)Cn1nnnc1C(C(C)C)N(Cc1cc2c(C)cc(C)cc2[nH]c1=O)C1CCCC1 (stereo not drawn) |
| 64.4 | CN(C)c1ccc(N=C/C=C2/N(C)c3ccccc3C2(C)C)cc1 |
| 78.8 | CCOc1cc(N2CCOCC2)c(OCC)cc1NC(C)C(=O)N1CCN(CC)CC1 (stereo not drawn) |
| 19.7 | O=C1CCC/C1=C/Nc1ccc2c(c1)OCO2 |
| 24 | Cc1cc(C(=O)NCCCN2CCCC2=O)no1 |
| 72.8 | Cc1cc(C)nc(N2CCC(C(=O)O)CC2)n1 |
| 1.89 | C=CCSC1=N/C(=C\C=C\c2ccco2)C(=O)S1 |
| 25.3 | Cc1c(Br)c(O)c(Br)c2sc(=O)oc12 |
| 18.6 | O=C(c1cc(-c2ccco2)on1)N1CCN(c2ccccc2)CC1 |
| 22.8 | CCCCn1c(SCC(=O)NCc2ccco2)nc2ccc(N3CCOCC3)cc2c1=O |
| 16.7 | Cc1cc(-c2csc(NC(=O)c3ccc(C#N)cc3)n2)c(C)n1Cc1ccco1 |
| 17.5 | CC(C)(CS(=O)(=O)[O-])NC(=O)CC[N+](C)(C)CCO |
| 7.65 | CCOC(=O)N1CCN(C(=O)c2ccc3c(SCC(=O)O)c4c(nc3c2)CCC4)CC1 |
| 14.3 | CCN(CC(=O)Nc1c(C(=O)OC)[nH]c2ccccc12)c1ccc2c(c1)OCO2 |
| 4.15 | CCOC(=O)c1c(C)oc2c1c(C=NCc1ccccn1)c(O)c1ccccc12 |

| IC50 [µM] | SMILES |
| --- | --- |
| 44.5 | CCC(=O)NNc1ncnc2ccccc12 |
| 78.2 | CCCn1c(=N)n(CC(O)c2ccco2)c2ccccc21 (stereo not drawn) |
| 32.7 | CC(CNc1ccccc1O)C(=O)O (stereo not drawn) |
| 27.6 | Cc1cccc(N(C(=O)Cn2nnc3ccccc32)C(C(=O)NCc2ccco2)c2ccncc2)c1C (stereo not drawn) |
| 2.12 | O=C(O)C1OC(Oc2c(-c3ccc(O)c(O)c3)oc3cc(O)cc(O)c3c2=O)C(O)C(O)C1O (stereo not drawn) |
| 4.64 | CC(=O)c1sc2nc(-c3ccco3)ccc2c1N |
| 74 | CCOC(=O)c1ccc(CC(=O)c2ccc(O)c(O)c2O)o1 |
| 60.7 | Cc1onc(-c2c(F)cccc2Cl)c1C(=O)Nc1nnc(C2CC2)s1 |
| 17.5 | CNCc1ccccc1Sc1cc(O)ccc1O |
| 2.81 | O=C(O)c1ccc(Cl)c2c1C1C=CCC1C(c1ccccn1)N2 (stereo not drawn) |
| 11.2 | COC(=O)c1ccc(CC(=O)c2c(C)cc(O)cc2O)o1 |
| 22.3 | COC/C=C/C1=CC2=CC(=O)C(C)(OC(=O)c3cnc4ccccc4n3)C(=O)C2=CN1c1ccccc1 (stereo not drawn) |
| 9.14 | Cc1cc(C(=O)COC(=O)c2cc(O)c3ccccc3c2O)c(C)n1CC1CCCO1 (stereo not drawn) |
| 82.1 | COc1ccc(OC)c(N2C(=O)[C@@H]3C(c4ccccc4Cl)=NO[C@@H]3C2=O)c1 |
| 24.8 | Cc1ccc(SCCN2C(=O)NC(C)(C)C2=O)cc1 |
| 52.2 | COC(=O)C1=C(N)OC2=C(C(=O)CCC2)C1c1cccs1 (stereo not drawn) |
| 1.47 | CCN1CCN(C2=NC(=O)/C(=C/c3ccc(C)o3)S2)CC1 |
| 26 | CC(/C=C1\SC(=S)N(CCCC(=O)Nc2ccc(C(=O)O)c(O)c2)C1=O)=C\c1ccccc1 |
| 5.81 | CSc1ccc(/C=N/Nc2cccc(C(=O)O)c2)cc1 |
| 12 | NC(=O)/C(=C/c1ccco1)C(N)=S |
| 0.909 | Cc1ccc(C)n1-c1sccc1C(=O)O |
| 41.3 | O=C1CCCC/C1=C/Nc1ccc2c(c1)OCO2 |
| 45 | C=CCNc1nc2ccccc2nc1NS(=O)(=O)c1cccs1 |

| SMILES | IC50 [µM] |
| --- | --- |
| Cc1ccc(C=C2C(Cl)=C(Cl)C(Cl)=C2Cl)cc1 | 4.67 |
